Our source for the Papp values is patent US20230096766A1, “AMINO ACID HAVING FUNCTIONAL GROUP CAPABLE OF INTERMOLECULAR HYDROGEN BONDING, PEPTIDE COMPOUND CONTAINING SAME AND METHOD FOR PRODUCTION THEREOF” (Chugai Seiyaku Kabushiki Kaisha, priority 2018, published 2023).

*1 amine or outer side, *2 acyl side, *3 side chain or, on linkers, in order; H or OH if unused. Where a SMILES comes first, the peptide text is derived from it. Bridges are numbered along the chain shown (N, C = ends). [ ]: non-standard residue; d: D form. The star is where a group is joined. ξ: configuration not given here. X5 = O=C([C@H](CCC[C@@H]1CC(F)(F)CN1)N[*:1])[*:2]; Phe(4-COOH) = N[C@@H](Cc1ccc(C(=O)O)cc1)C(=O)O; X12 = O=C([C@H](CCCC(O)C(F)(F)F)N[*:1])[*:2]; Pro(4,4-F2)ψ(CH2) = FC1(F)CN[C@H](C*)C1; NMeF = CN[C@@H](Cc1ccccc1)C(=O)O; NMeGABA = CN(CCCC(=O)[*:2])[*:1]; NMeI = CC[C@H](C)[C@H](NC)C(=O)O; NMeL = CN[C@@H](CC(C)C)C(=O)O; Butyl(3S-OH) = C[C@H](O)CC*; NMeV = CN[C@H](C(=O)O)C(C)C; NMeAbu = CC[C@H](NC)C(=O)O; NMeA = CN[C@@H](C)C(=O)O; Piperidide = C1CCN(*)CC1; CH2CONHMe = CNC(=O)C*; NBuGly = CCCCNCC(=O)O; NPrGly = CCCNCC(=O)O; ξS = NC(CO)C(=O)O; N(OH)Me = CN(O)*; Sar = CNCC(=O)O; tBu = CC(C)(C)* Bounds are passed on as bounds.

This data set can be described thus: Membrane permeability test of cyclic peptides (Caco-2, modified/improved method of WO 2018/124162). Particulars: human. (Caco-2 cells form a polarised layer with tight junctions and transporters.)
[1] abbreviates: Caco-2, Caco-2 (membrane permeability), Table 10, cyclic peptides containing Ser(S-4-F2-Pyrro-Me) (G) or Nva(2-R-4-F2-Pyrro) (H).
[2] abbreviates: Caco-2, Caco-2 (cm/sec), membrane permeability of cyclic peptides, Caco-2.

In general, Papp refers to a coefficient for how fast a substance crosses the barrier. `CCCCN1CC(=O)N(C)[C@@H](CC(C)C)C(=O)N[C@H](C(=O)N2CCCCC2)CC(=O)N(C)[C@@H](CC)C(=O)N[C@@H](CC(C)C)C(=O)N(C)[C@@H](CC(C)C)C(=O)N(C)[C@@H](Cc2ccccc2)C(=O)N[C@@H](COC[C@@H]2CC(F)(F)CN2)C(=O)N(C)[C@@H](CC)C(=O)N(C)[C@@H](CC(C)C)C(=O)N[C@@H]([C@@H](C)O)C1=O` [Compound G04] ([NMeAbu]L[NMeL][NMeF]S(Pro(4,4-F2)ψ(CH2))[NMeAbu][NMeL]T[NBuGly][NMeL]D-Piperidide; lactam N-11): the Papp under setting [1] was 1.8 ×10⁻⁶ cm/s.

`CCCN1CC(=O)N(C)[C@@H](CC(C)C)C(=O)N[C@@H](CC(C)C)C(=O)N(C)[C@@H](Cc2ccccc2)C(=O)N(C)[C@@H](CC(C)C)C(=O)N[C@H](C(=O)N2CCCCC2)CC(=O)N[C@H](CC(C)C)C(=O)N(C)[C@@H](Cc2ccccc2)C(=O)N[C@@H](COCC(=O)NC)C(=O)N(C)[C@@H](CC(C)C)C(=O)N[C@@H]([C@@H](C)O)C1=O` [Compound I01] ([dL][NMeF]S(CH2CONHMe)[NMeL]T[NPrGly][NMeL]L[NMeF][NMeL]D-Piperidide; lactam N-11) came in with a Papp (Caco-2, Caco-2 (membrane permeability), Table 12, cyclic peptides containing Ser(NMe-Aca) (I) or Gln(Me) (J)) of 0.27 ×10⁻⁶ cm/s. `CC(C)C[C@H]1C(=O)N[C@@H](C(C)C)C(=O)N(C)[C@@H](Cc2ccccc2)C(=O)N(C)[C@@H](CC(C)C)C(=O)N[C@@H](CCC[C@@H]2CC(F)(F)CN2)C(=O)N(C)[C@@H](CC(C)C)C(=O)N[C@@H]([C@@H](C)O)C(=O)N(C)[C@@H](CC(C)C)C(=O)N(C)[C@@H](CC(C)C)C(=O)N[C@H](C(=O)N2CCCCC2)CC(=O)N(C)CCCC(=O)N1C` [Compound H03] ([NMeGABA][NMeL]V[NMeF][NMeL][X5][NMeL]T[NMeL][NMeL]D-Piperidide; lactam N-11) came in with a Papp under setting [1] of less than 0.18 ×10⁻⁶ cm/s. On the same count and under the same terms, with `CC[C@H]1C(=O)N[C@@H](COC(C)(C)C)C(=O)N(C)[C@@H](CC(C)C)C(=O)N[C@@H](COC[C@@H]2CC(F)(F)CN2)C(=O)N(C)[C@@H](CC(C)C)C(=O)N(C)[C@@H](CC(C)C)C(=O)N[C@H](C(=O)N2CCCCC2)CC(=O)N(C)CCCC(=O)N(C)[C@@H](CC(C)C)C(=O)N[C@@H](C(C)C)C(=O)N(C)[C@@H](Cc2ccccc2)C(=O)N1C` [Compound G09] ([NMeGABA][NMeL]V[NMeF][NMeAbu]S(tBu)[NMeL]S(Pro(4,4-F2)ψ(CH2))[NMeL][NMeL]D-Piperidide; lactam N-11) the figure was 1.2 ×10⁻⁶ cm/s.

As for `CCCCN1CC(=O)N(C)[C@@H](C)C(=O)N[C@@H](CCC[C@@H]2CC(F)(F)CN2)C(=O)N(C)[C@@H](Cc2ccccc2)C(=O)N(C)[C@@H](CC)C(=O)N[C@H](C(=O)N2CCCCC2)CC(=O)N[C@H](CC(C)C)C(=O)N(C)[C@@H](CC(C)C)C(=O)N[C@@H](C(C)C)C(=O)N(C)[C@@H](CC(C)C)C(=O)N[C@@H]([C@@H](C)O)C1=O` [Compound H02] ([dL][NMeL]V[NMeL]T[NBuGly][NMeA][X5][NMeF][NMeAbu]D-Piperidide; lactam N-11), the Papp under setting [1] turned out to be 0.14 ×10⁻⁶ cm/s. `CC[C@H](C)[C@H]1C(=O)N[C@@H]([C@@H](C)O)C(=O)N(C)CC(=O)N(C)[C@@H](CC)C(=O)N[C@H](C(=O)N2CCCCC2)CC(=O)N(C)[C@@H](CC(C)C)C(=O)N[C@@H](Cc2ccc(C(=O)N(C)O)cc2)C(=O)N(C)[C@@H](CC(C)C)C(=O)N(C)[C@@H](Cc2ccccc2)C(=O)N[C@@H](CC(C)C)C(=O)N(C)[C@@H](CC(C)C)C(=O)N1C` [AP252] ([NMeL][Phe(4-COOH)](N(OH)Me)[NMeL][NMeF]L[NMeL][NMeI]T[Sar][NMeAbu]D-Piperidide; lactam N-11) came in with a Papp under setting [2] of 0.13 ×10⁻⁶ cm/s. `CC(C)C[C@H]1C(=O)N[C@@H](C(C)C)C(=O)N(C)[C@@H](Cc2ccccc2)C(=O)N(C)[C@@H](Cc2ccccc2)C(=O)N[C@@H](COC(C)(C)C)C(=O)N(C)[C@@H](CC(C)C)C(=O)N[C@@H](CCCC(O)C(F)(F)F)C(=O)N(C)[C@@H](CC(C)C)C(=O)N(C)[C@@H](CC(C)C)C(=O)N[C@H](C(=O)N2CCCCC2)CC(=O)N(C)CCCC(=O)N1C` (stereo partly drawn) [Compound D12] ([NMeGABA][NMeL]V[NMeF][NMeF]S(tBu)[NMeL][X12][NMeL][NMeL]D-Piperidide; lactam N-11) yielded a Papp (Caco-2, Caco-2 (membrane permeability), Table 6, cyclic peptides containing Ser(1-CF3-EtOH) (C) or Hnl(7-F3-6-OH) (D)) of 0.13 ×10⁻⁶ cm/s. The compound `CC(C)C[C@@H]1NC(=O)[C@H](C(C)C)N(C)C(=O)C[C@@H](C(=O)N2CCCCC2)NC(=O)[C@H](CC(C)C)N(C)C(=O)CN(C)C(=O)[C@H]([C@@H](C)O)NC(=O)[C@H](C(C)C)N(C)C(=O)[C@H](Cc2ccccc2)N(C)C(=O)C(COCC[C@H](C)O)NC(=O)[C@H](Cc2ccccc2)N(C)C(=O)[C@H](CC(C)C)N(C)C1=O` (stereo partly drawn) [AP104] ([NMeV]L[NMeL][NMeF][ξS](Butyl(3S-OH))[NMeF][NMeV]T[Sar][NMeL]D-Piperidide; lactam N-11) gave a Papp under setting [2] of 2.9 ×10⁻⁶ cm/s.
